The results in this text go back to PMC5218480 (PLoS ONE, 2017).

In the assay the test system is MV-4-11 cells. Briefly: Gene expression microarray analysis (Affymetrix PrimeView) and GSEA. The format is cell-based, human. Also noted: RFU PODN (11730768_x_at) / Fold change /veh PODN (11730768_x_at) / RFU LINC00158 (11744669_a_at) / Fold change /veh LINC00158 (11744669_a_at) / RFU DUSP10 (11751237_a_at) / Fold change /veh DUSP10 (11751237_a_at) / RFU ID3 (11757404_x_at) / Fold change /veh ID3 (11757404_x_at) / RFU PLEKHG5 (11737974_s_at) / Fold change /veh PLEKHG5 (11737974_s_at) / RFU LRRC4B (11730491_at) / Fold change /veh LRRC4B (11730491_at) / RFU GIMAP4 (11747438_a_at) / Fold change /veh GIMAP4 (11747438_a_at) / RFU KRT8 (11758183_x_at) / Fold change /veh KRT8 (11758183_x_at) / RFU CNN1 (11734310_a_at) / Fold change /veh CNN1 (11734310_a_at) / RFU VPS37D (11726825_at) / Fold change /veh VPS37D (11726825_at) / RFU C10orf10 (11716522_x_at) / Fold change /veh C10orf10 (11716522_x_at) / RFU KIR2DL2 /// KIR2DL4 /// KIR2DL5A /// KIR2DL5B /// KIR2DS1 /// KIR2DS2 /// KIR2DS3 /// KIR2DS4 /// KIR3DL3 /// KIR3DL3 /// KIR3DS1 (11738374_at) / Fold change /veh KIR2DL2 /// KIR2DL4 /// KIR2DL5A /// KIR2DL5B /// KIR2DS1 /// KIR2DS2 /// KIR2DS3 /// KIR2DS4 /// KIR3DL3 /// KIR3DL3 /// KIR3DS1 (11738374_at) / RFU C1QL1 (11718748_at) / Fold change /veh C1QL1 (11718748_at) / RFU TMPRSS4 (11747572_a_at) / Fold change /veh TMPRSS4 (11747572_a_at) / RFU HAMP (11756126_x_at) / Fold change /veh HAMP (11756126_x_at) / RFU RNFT2 (11725882_a_at) / Fold change /veh RNFT2 (11725882_a_at) / RFU NR4A2 (11747474_a_at) / Fold change /veh NR4A2 (11747474_a_at) / RFU ABCC12 (11746883_a_at) / Fold change /veh ABCC12 (11746883_a_at) / RFU TMEM136 (11760407_x_at) / Fold change /veh TMEM136 (11760407_x_at) / RFU CLDN22 /// WWC2 (11732394_at) / Fold change /veh CLDN22 /// WWC2 (11732394_at) / RFU HLA-DPB1 (11760878_x_at) / Fold change /veh HLA-DPB1 (11760878_x_at) / RFU SPINT1 (11716480_a_at) / Fold change /veh SPINT1 (11716480_a_at) / RFU GAP43 (11754022_s_at) / Fold change /veh GAP43 (11754022_s_at) / RFU A4GNT (11735810_at) / Fold change /veh A4GNT (11735810_at) / RFU PRB3 (11715151_x_at) / Fold change /veh PRB3 (11715151_x_at) / RFU TUBB4B (11761932_at) / Fold change /veh TUBB4B (11761932_at) / RFU CAPN14 (11732068_a_at) / Fold change /veh CAPN14 (11732068_a_at) / RFU TMCC2 (11721928_a_at) / Fold change /veh TMCC2 (11721928_a_at) / RFU IRGQ (11745062_a_at) / Fold change /veh IRGQ (11745062_a_at) / RFU FAM174B (11720279_a_at) / Fold change /veh FAM174B (11720279_a_at) / RFU TMPRSS4 (11748680_a_at) / Fold change /veh TMPRSS4 (11748680_a_at) / RFU FAM212B (11763350_a_at) / Fold change /veh FAM212B (11763350_a_at) / RFU PLEKHG5 (11743358_a_at) / Fold change /veh PLEKHG5 (11743358_a_at) / RFU ZSCAN30 (11745921_a_at) / Fold change /veh ZSCAN30 (11745921_a_at) / RFU CMKLR1 (11741424_a_at) / Fold change /veh CMKLR1 (11741424_a_at) / RFU LOC101060620 /// MAPK8IP1 (11723275_at) / Fold change /veh LOC101060620 /// MAPK8IP1 (11723275_at) / RFU SPTSSB (11747773_x_at) / Fold change /veh SPTSSB (11747773_x_at) / RFU PRSS12 (11739890_at) / Fold change /veh PRSS12 (11739890_at) / RFU BIN1 (11741810_x_at) / Fold change /veh BIN1 (11741810_x_at) / RFU WNT11 (11732464_a_at) / Fold change /veh WNT11 (11732464_a_at) / RFU C10orf10 (11716521_a_at) / Fold change /veh C10orf10 (11716521_a_at) / RFU C5orf56 (11738089_at) / Fold change /veh C5orf56 (11738089_at) / RFU CYB561 (11721691_x_at) / Fold change /veh CYB561 (11721691_x_at) / RFU ANKRD19P (11752326_a_at) / Fold change /veh ANKRD19P (11752326_a_at) / RFU OR2T12 /// OR2T33 /// OR2T8 (11738714_s_at) / Fold change /veh OR2T12 /// OR2T33 /// OR2T8 (11738714_s_at) / RFU VCAN (11748164_a_at) / Fold change /veh VCAN (11748164_a_at) / RFU JSRP1 (11732532_at) / Fold change /veh JSRP1 (11732532_at) / RFU KRTAP10-11 (11738290_x_at) / Fold change /veh KRTAP10-11 (11738290_x_at) / RFU MYO3A (11730013_a_at) / Fold change /veh MYO3A (11730013_a_at) / RFU EBF3 (11725865_a_at) / Fold change /veh EBF3 (11725865_a_at) / RFU CAMK2N1 (11719241_x_at) / Fold change /veh CAMK2N1 (11719241_x_at) / RFU C5orf56 (11738088_a_at) / Fold change /veh C5orf56 (11738088_a_at) / RFU OLFML3 (11715873_a_at) / Fold change /veh OLFML3 (11715873_a_at) / RFU LOC100653217 /// NTM (11731650_a_at) / Fold change /veh LOC100653217 /// NTM (11731650_a_at) / RFU MAPK11 (11762145_a_at) / Fold change /veh MAPK11 (11762145_a_at) / RFU FIZ1 (11724087_x_at) / Fold change /veh FIZ1 (11724087_x_at) / RFU OASL (11726364_x_at) / Fold change /veh OASL (11726364_x_at) / RFU SOX15 (11748057_x_at) / Fold change /veh SOX15 (11748057_x_at) / RFU CD79A (11719716_a_at) / Fold change /veh CD79A (11719716_a_at) / RFU HIST1H1D (11736915_at) / Fold change /veh HIST1H1D (11736915_at) / RFU CASKIN2 (11723855_a_at) / Fold change /veh CASKIN2 (11723855_a_at) / RFU LOC730098 (11760151_x_at) / Fold change /veh LOC730098 (11760151_x_at) / RFU OR4N2 (11742367_at) / Fold change /veh OR4N2 (11742367_at) / RFU PRRT2 (11749266_a_at) / Fold change /veh PRRT2 (11749266_a_at) / RFU SNX32 (11753110_a_at) / Fold change /veh SNX32 (11753110_a_at) / RFU CDHR5 (11726645_a_at) / Fold change /veh CDHR5 (11726645_a_at) / RFU RCAN1 (11760418_a_at) / Fold change /veh RCAN1 (11760418_a_at) / RFU FAM167A (11723789_a_at) / Fold change /veh FAM167A (11723789_a_at) / RFU FAM26E (11764081_at) / Fold change /veh FAM26E (11764081_at) / RFU ISYNA1 (11749810_s_at) / Fold change /veh ISYNA1 (11749810_s_at) / RFU ACY1 (11761880_at) / Fold change /veh ACY1 (11761880_at) / RFU 11764098_at / Fold change /veh 11764098_at / RFU SAMD14 (11745864_x_at) / Fold change /veh SAMD14 (11745864_x_at) / RFU NPB (11741838_a_at) / Fold change /veh NPB (11741838_a_at) / RFU TMPRSS6 (11731388_a_at) / Fold change /veh TMPRSS6 (11731388_a_at) / RFU KRTAP10-2 (11738614_at) / Fold change /veh KRTAP10-2 (11738614_at) / RFU ARHGAP8 /// PRR5-ARHGAP8 (11727945_x_at) / Fold change /veh ARHGAP8 /// PRR5-ARHGAP8 (11727945_x_at) / RFU KRTAP5-7 /// NADSYN1 (11734609_at) / Fold change /veh KRTAP5-7 /// NADSYN1 (11734609_at) / RFU RASL12 (11751679_a_at) / Fold change /veh RASL12 (11751679_a_at) / RFU CDKN2B (11736163_a_at) / Fold change /veh CDKN2B (11736163_a_at) / RFU PRF1 (11729649_at) / Fold change /veh PRF1 (11729649_at) / RFU, ZNF638 /// ZNF638-IT1 / Fold change vs veh, ZNF638 /// ZNF638-IT1 / RFU, PANK3 / Fold change vs veh, PANK3 / RFU, SH3YL1 / Fold change vs veh, SH3YL1 / RFU, ZEB2 / Fold change vs veh, ZEB2 / RFU, NRIP1 / Fold change vs veh, NRIP1 / RFU, PTTG1IP / Fold change vs veh, PTTG1IP / RFU, CAPN2 / Fold change vs veh, CAPN2 / RFU, MED14 / Fold change vs veh, MED14 / RFU, SNORA58 / Fold change vs veh, SNORA58 / RFU, C1orf63 / Fold change vs veh, C1orf63 / RFU, LRRFIP1 / Fold change vs veh, LRRFIP1 / RFU, NDUFAF7 / Fold change vs veh, NDUFAF7 / RFU, SLC12A2 / Fold change vs veh, SLC12A2 / RFU, IBTK / Fold change vs veh, IBTK / RFU, ESF1 / Fold change vs veh, ESF1 / Fold change vs veh, TMEM50B / RFU, TAOK1 / Fold change vs veh, TAOK1 / RFU, ACBD3 / Fold change vs veh, ACBD3 / RFU, TMA16 / Fold change vs veh, TMA16 / RFU, RWDD3 / Fold change vs veh, RWDD3 / RFU, BCAT1 / Fold change vs veh, BCAT1 / RFU, EDEM3 / Fold change vs veh, EDEM3 / RFU, TMEM33 / Fold change vs veh, TMEM33 / RFU, WDR75 / Fold change vs veh, WDR75 / RFU, AHCTF1 / Fold change vs veh, AHCTF1 / RFU, TFRC / Fold change vs veh, TFRC / RFU, ZDHHC17 / Fold change vs veh, ZDHHC17 / RFU, NOM1 / Fold change vs veh, NOM1 / RFU, ARL8B / Fold change vs veh, ARL8B / RFU, ZBTB11 / Fold change vs veh, ZBTB11 / RFU, TAMM41 / Fold change vs veh, TAMM41 / RFU, KIAA1704 /// LOC100996395 / Fold change vs veh, KIAA1704 /// LOC100996395 / RFU, ING1 / Fold change vs veh, ING1 / RFU, TRMT61B / Fold change vs veh, TRMT61B / RFU, FUBP3 / Fold change vs veh, FUBP3 / RFU, TP53 / Fold change vs veh, TP53 / RFU, TNKS2 / Fold change vs veh, TNKS2 / RFU, ZFP14 / Fold change vs veh, ZFP14 / RFU, ACTR2 / Fold change vs veh, ACTR2 / RFU, PPP3R1 / Fold change vs veh, PPP3R1 / RFU, PIK3R1 / Fold change vs veh, PIK3R1 / RFU, HNRNPA1 / Fold change vs veh, HNRNPA1 / RFU, RNF170 / Fold change vs veh, RNF170 / RFU, ZNF28 / Fold change vs veh, ZNF28 / RFU, RNGTT / Fold change vs veh, RNGTT / RFU, OGT / Fold change vs veh, OGT / RFU, BRD1 / Fold change vs veh, BRD1 / RFU, MARS / Fold change vs veh, MARS / RFU, ZNF655 / Fold change vs veh, ZNF655 / RFU, FAHD1 / Fold change vs veh, FAHD1 / RFU, BDP1 / Fold change vs veh, BDP1 / RFU, LRRCC1 / Fold change vs veh, LRRCC1 / RFU, ARID1A / Fold change vs veh, ARID1A / RFU, ZNF146 / Fold change vs veh, ZNF146 / RFU, ZNF330 / Fold change vs veh, ZNF330 / RFU, GPN3 / Fold change vs veh, GPN3 / RFU, C9orf123 / Fold change vs veh, C9orf123 / RFU, N4BP2L2 / Fold change vs veh, N4BP2L2 / RFU, ARFIP1 / Fold change vs veh, ARFIP1 / RFU, FAM179B / Fold change vs veh, FAM179B / RFU, BCL10 / Fold change vs veh, BCL10 / RFU, UHRF1BP1L / Fold change vs veh, UHRF1BP1L / RFU, BET1 / Fold change vs veh, BET1 / RFU, CNOT2 / Fold change vs veh, CNOT2 / RFU, ZNF268 / Fold change vs veh, ZNF268 / Fold change vs veh, ZNF507 / RFU, DGCR2 / Fold change vs veh, DGCR2 / RFU, WDSUB1 / Fold change vs veh, WDSUB1 / Fold change vs veh, HSP90B1 /// MIR3652 / RFU, ADSS / Fold change vs veh, ADSS / RFU, GK / Fold change vs veh, GK / RFU, ZNF148 / Fold change vs veh, ZNF148 / RFU, TAF9 / Fold change vs veh, TAF9 / RFU, SLC1A5 / Fold change vs veh, SLC1A5 / RFU, SLMO2 / Fold change vs veh, SLMO2 / RFU, ABCC4 / Fold change vs veh, ABCC4 / RFU, LOC101060439 /// RAP1B / Fold change vs veh, LOC101060439 /// RAP1B / RFU, RFX7 / Fold change vs veh, RFX7 / RFU, GTPBP10 / Fold change vs veh, GTPBP10 / RFU, CNEP1R1 / Fold change vs veh, CNEP1R1 / RFU, BIVM-ERCC5 /// ERCC5 / Fold change vs veh, BIVM-ERCC5 /// ERCC5 / RFU, ILF3 / Fold change vs veh, ILF3 / RFU 11762660_at / Fold change /veh 11762660_at / RFU VCAN (11757783_s_at) / Fold change /veh VCAN (11757783_s_at) / RFU DDX43 (11728927_at) / Fold change /veh DDX43 (11728927_at) / RFU KRT8 (11758188_x_at) / Fold change /veh KRT8 (11758188_x_at) / RFU NKD1 (11759106_at) / Fold change /veh NKD1 (11759106_at) / RFU SRD5A1 (11742802_a_at) / Fold change /veh SRD5A1 (11742802_a_at) / RFU TPSAB1 /// TPSB2 (11721975_s_at) / Fold change /veh TPSAB1 /// TPSB2 (11721975_s_at) / RFU GSTM3 (11746129_a_at) / Fold change /veh GSTM3 (11746129_a_at) / RFU IL23R (11737362_x_at) / Fold change /veh IL23R (11737362_x_at) / RFU TMEM51 (11727254_a_at) / Fold change /veh TMEM51 (11727254_a_at) / RFU PIWIL2 (11732686_x_at) / Fold change /veh PIWIL2 (11732686_x_at) / RFU ORM1 (11744905_x_at) / Fold change /veh ORM1 (11744905_x_at) / RFU CCDC152 (11743942_at) / Fold change /veh CCDC152 (11743942_at) / RFU ECM1 (11717891_a_at) / Fold change /veh ECM1 (11717891_a_at) / RFU IL23R (11748794_a_at) / Fold change /veh IL23R (11748794_a_at) / RFU TNFAIP8L3 (11732012_x_at) / Fold change /veh TNFAIP8L3 (11732012_x_at) / RFU MBOAT4 (11741988_at) / Fold change /veh MBOAT4 (11741988_at) / RFU 11764193_at / Fold change /veh 11764193_at / RFU TMEM53 (11763286_at) / Fold change /veh TMEM53 (11763286_at) / RFU MAGEB2 (11727129_at) / Fold change /veh MAGEB2 (11727129_at) / RFU TMEM200A (11744735_a_at) / Fold change /veh TMEM200A (11744735_a_at) / RFU CCDC152 (11751479_a_at) / Fold change /veh CCDC152 (11751479_a_at) / RFU FAM211A (11726209_a_at) / Fold change /veh FAM211A (11726209_a_at) / RFU RGS16 (11746705_a_at) / Fold change /veh RGS16 (11746705_a_at) / RFU VCAN (11755009_s_at) / Fold change /veh VCAN (11755009_s_at) / RFU RHOB (11743442_s_at) / Fold change /veh RHOB (11743442_s_at) / RFU RGS16 (11720943_a_at) / Fold change /veh RGS16 (11720943_a_at) / RFU RGS16 (11720944_at) / Fold change /veh RGS16 (11720944_at) / RFU, VPS4B / Fold change vs veh, VPS4B / RFU, CREB1 / Fold change vs veh, CREB1 / RFU, DNAJC13 / Fold change vs veh, DNAJC13 / RFU, GNAQ / Fold change vs veh, GNAQ / RFU, CDK5R1 / Fold change vs veh, CDK5R1 / RFU, ZRANB3 / Fold change vs veh, ZRANB3 / RFU, CUL4A / Fold change vs veh, CUL4A / RFU, CCNY / Fold change vs veh, CCNY / RFU, UFL1 / Fold change vs veh, UFL1 / RFU, COG3 / Fold change vs veh, COG3 / RFU, DIAPH2 / Fold change vs veh, DIAPH2 / RFU, SKA2 / Fold change vs veh, SKA2 / RFU, AFF3 / Fold change vs veh, AFF3 / RFU, LMF1 / Fold change vs veh, LMF1 / RFU, IPO11 / Fold change vs veh, IPO11 / RFU, DFFB / Fold change vs veh, DFFB / RFU, FOXP1 / Fold change vs veh, FOXP1 / RFU, CARD8 / Fold change vs veh, CARD8 / RFU, STRN3 / Fold change vs veh, STRN3 / RFU, ADK / Fold change vs veh, ADK / RFU, RASSF2 / Fold change vs veh, RASSF2 / RFU, WIPF1 / Fold change vs veh, WIPF1 / RFU, LARP1B / Fold change vs veh, LARP1B / RFU, RASA1 / Fold change vs veh, RASA1 / RFU, RB1 / Fold change vs veh, RB1 / RFU, PPFIA1 / Fold change vs veh, PPFIA1 / RFU, MAT2A / Fold change vs veh, MAT2A / RFU, CCT5 / Fold change vs veh, CCT5 / RFU, WDR92 / Fold change vs veh, WDR92 / RFU, CUX1 / Fold change vs veh, CUX1 / RFU, TTC7A / Fold change vs veh, TTC7A / RFU, TMEM135 / Fold change vs veh, TMEM135 / RFU, DEPTOR / Fold change vs veh, DEPTOR / RFU, CPM / Fold change vs veh, CPM / RFU, DNAJB6 / Fold change vs veh, DNAJB6 / RFU, CACNA2D3 / Fold change vs veh, CACNA2D3 / RFU, DTX4 / Fold change vs veh, DTX4 / RFU, TFCP2 / Fold change vs veh, TFCP2 / RFU, GMCL1 /// GMCL1P1 / Fold change vs veh, GMCL1 /// GMCL1P1 / RFU, AEBP2 / Fold change vs veh, AEBP2 / RFU, SNHG1 /// SNORD22 /// SNORD25 /// SNORD26 /// SNORD27 /// SNORD28 /// SNORD29 /// SNORD31 / Fold change vs veh, SNHG1 /// SNORD22 /// SNORD25 /// SNORD26 /// SNORD27 /// SNORD28 /// SNORD29 /// SNORD31 / Fold change (Aza/veh), C12orf56 (ProbeSet 11735607_a_at) / Fold change (ACY-1035/veh), C12orf56 (ProbeSet 11735607_a_at) / Fold change (Aza/veh), FGFR1OP (ProbeSet 11751329_s_at) / Fold change (ACY-1035/veh), FGFR1OP (ProbeSet 11751329_s_at) / Fold change (Aza/veh), VPS36 (ProbeSet 11739960_a_at) / Fold change (ACY-1035/veh), VPS36 (ProbeSet 11739960_a_at) / RFU SYPL1 (11715823_x_at) / Fold change /veh SYPL1 (11715823_x_at) / RFU IGFBP7 (11715501_s_at) / Fold change /veh IGFBP7 (11715501_s_at) / RFU REEP3 (11722064_at) / Fold change /veh REEP3 (11722064_at) / RFU IGLL1 (11728026_x_at) / Fold change /veh IGLL1 (11728026_x_at): dose or concentration left out as unconfirmed. As to conditions: ProbeSet 11743567_s_at; LIST B.

Consider `Nc1ccc(-c2cccs2)cc1NC(=O)c1ccc2c(c1)cc(C1CC1)n2CCN1CCOCC1` [ACY-1035], for which the “Fold change vs veh, ACBD3” value worked out at 0.99.
